# Measurements as given in US20260308691A1, “NOVEL USE OF AN INHIBITOR OF THE POLY-ADP RIBOSE POLYMERASE (PARP) IN THE TREATMENT OF CANCER” (TESARO, Inc., priority 2023, published 2026).
# Entries after “also recorded” stand apart in the source; their conditions may differ.
# Experiments:
# Assay type in all cases: cell-based, human
# PD-L1 = PD-L1 expression in PDO tumour cells cocultured with activated PBMC (flow cytometry and multiplex imaging); details: resistant PDOs, co-cultured 48 h with activated PBMC
# Protocol: A multi-modal assay was developed to test tumour cell response to niraparib and the effects of the treatment on immune cells. The assay is illustrated in FIG. 1. […] After 5 to 7 days (according to the proliferation rate of each PDO), one plate is treated with different doses of niraparib and DMSO for cytotoxicity evaluation. The remaining plates, PDOs are treated with niraparib (1.4 μM), cisplatin (4.7 μM), DMSO or saline solution (control) for 7 days. Following the treatment period, the media from one plate/condition (i.e. one DMSO and one Niraparib-treated plate) is collected for exosomes isolation and analysis of DNA length and the PDOs are processed to extract RNA for RNAseq and qRT-PCR (see the details in the qRT-PCR analysis section). […]
# (§1) MACS buffer with mouse anti human CD3, CD8, CD4, CD56, CD226, CD45, TIGIT, PD1, PDL1, EpCAM, PVRIG, TIM3, CD96, CD14 and CD11b antibodies for one hour at 4° C. […] The cell-containing tubes are running on CytoFLEX (Beckman Coulter), and data analyzed with FlowJo software.
# Multiplex fluorescence imaging assay is performed on a single 6-micron cryosection of fixed-frozen PDOs. […]
# [1] = tested on: CD45 positive cells infiltrating PDOs; assay: Flow cytometry of CD45 positive immune cells infiltrating PDOs after coculture with activated PBMC; details: 48 h coculture
# Protocol: (§2) A multi-modal assay was developed to test tumour cell response to niraparib and the effects of the treatment on immune cells. The assay is illustrated in FIG. 1. […] After 5 to 7 days (according to the proliferation rate of each PDO), one plate is treated with different doses of niraparib and DMSO for cytotoxicity evaluation. The remaining plates, PDOs are treated with niraparib (1.4 μM), cisplatin (4.7 μM), DMSO or saline solution (control) for 7 days. Following the treatment period, the media from one plate/condition (i.e. one DMSO and one Niraparib-treated plate) is collected for exosomes isolation and analysis of DNA length and the PDOs are processed to extract RNA for RNAseq and qRT-PCR (see the details in the qRT-PCR analysis section). For both niraparib and cisplatin treated samples (and the respective controls) PDOs are collected from the remaining plates and, after washing out BME, are plated into low adherence 96 well plates in a 1 to 6 ratio with Peripheral Blood Mononuclear Cells (PBMCs) pre-stimulated for a total of 4 days using anti-CD3 in combination anti-CD28 (as costimulatory signal) antibodies. The PDOs are co-cultured for 48 h after which all the cells are collected, the not infiltrating immune cells are washed off and the rest is either digested to single cells or fixed and embedded as whole tissue. For flow cytometry analysis the single cells are blocked, stained with antibody mix, fixed, and run on a flow cytometer. For imaging, the embedded organoids are labelled with different antibodies, cleared, and imaged.
# After 48 h of co-culture, PDOs are collected. The non-infiltrating immune cells are separated with a cell strainer while the organoids and infiltrating immune cells reduced to single cell level. Live dead exclusion is performed incubating the cells with Zombie dye for 30 minutes at room temperature. Following a blocking step in MACS buffer and anti-human and mouse IgG, staining is performed in
# MACS buffer with mouse anti human CD3, CD8, CD4, CD56, CD226, CD45, TIGIT, PD1, PDL1, EpCAM, PVRIG, TIM3, CD96, CD14 and CD11b antibodies for one hour at 4° C. The cells are then fixed and DNA staining performed. The cell-containing tubes are running on CytoFLEX (Beckman Coulter), and data analyzed with FlowJo software.
# [2] = tested on: exosomal DNA (exoDNA) from PDOs; assay: Length of DNA isolated from exosomes (exoDNA) of treated PDOs; details: for exoDNA length, sensitive PDO HNX29: HNX29 (sensitive, representative), exosomes collected after 6 days, compared to control
# Protocol: as §2, with “The remaining plates, PDOs are treated with niraparib (1.4 μM), cisplatin (4.7 μM), DMSO or saline solution (control) for 7 days.” left out
# Exosomes are obtaining by a series of centrifugations and ultra-centrifugations at increasing speeds of the media collected from the PDO cultures. Each sample is split into two tubes for the ultracentrifugation (for subsequent protein and genomic analysis).
# DNA is extracted from exosomes via silica-membrane based nucleic acid purification by QIAamp Blood DNA extraction Kit (QIAGEN) and quantified by Qubit dsDNA HS kit. The Genomic DNA ScreenTape assay on the Agilent 4200 Tapestation system is used to assess the length of DNA and the R package bioanalyzeR exploited to obtain the DNA size distribution and number of molecules at different sizes. Part of the exosome DNA is sequenced using Oxford Nanopore Promethion for a drug treatment and a control experiment. For both samples, reads are then aligned to the human genome (hg38) using minimap2, and the following analyses performed. For every gene for which there are any aligned reads, the following is calculated: • Fragments per kilobase million (FPKM) as a normalised metric of representation of gene in the exosome dataset • The maximum fraction of total gene length that is covered by a single nanopore read. • The median fraction of total gene length that is covered by all nanopore reads that aligned to that gene • Coding and non-coding variants (for all bases for which there was a minimum depth of 20 reads) • Hypomethylation of CpG island of coding variants
# [3] = tested on: Patient-derived organoids (PDOs), HNSCC and NSCLC; assay: Cytotoxicity in patient-derived organoids (Cell titre glow dose-response curve); details: for PDO response to niraparib compared with cisplatin: resistant and sensitive PDOs, 6 days
# Protocol: as §2
# PDOs are seeded as single cells at a certain density (according to their growth rate) in 15 μl BME/dome.
# 1 dome per well in 24-wells plate with 1 ml of complete media/each well. […] 150 μl of the solution is collected from each well and transferred to a 96 well plate for the reading performed with Clariostar Plus (BMG Labtech). […]
# [4] = tested on: EpCAM positive cells of PDOs; assay: Tumour cell viability by flow cytometry (live cells within EpCAM positive cells) after coculture with PBMC; details: 1.4 μM niraparib or DMSO 7 days, 48 h coculture with PBMC
# Protocol: as §2, with “The PDOs are co-cultured for 48 h after which all the cells are collected, the not infiltrating immune cells are washed off and the rest is either digested to single cells or fixed and embedded as whole tissue. For flow cytometry analysis the single cells are blocked, stained with antibody mix, fixed, and run on a flow cytometer. For imaging, the embedded organoids are labelled with different antibodies, cleared, and imaged.” left out
# Cell viability is evaluated by flow cytometry analysis performed after 48 h of co-culture subsequent to 7 days of treatment with 1.4 μM Niraparib or DMSO (as control). […]
# PD1 = assay: Flow cytometry of PD1 expression on CD4 positive cells cocultured with PDOs; details: niraparib-treated PDOs, 48 h coculture
# Protocol: as §2, with “The PDOs are co-cultured for 48 h after which all the cells are collected, the not infiltrating immune cells are washed off and the rest is either digested to single cells or fixed and embedded as whole tissue. For flow cytometry analysis the single cells are blocked, stained with antibody mix, fixed, and run on a flow cytometer. For imaging, the embedded organoids are labelled with different antibodies, cleared, and imaged.” left out
# as §1
Compound,PD-L1 expression in cisplatin-treated tumour cells (PD-L1; vs saline),"infiltration of CD45 positive cells, cisplatin-treated resistant PDOs ([1]; PDOs classified as resistant to niraparib, cisplatin 4.7 μM 7 days, vs saline)","infiltration of CD45 positive cells, cisplatin-treated sensitive PDOs ([1]; PDOs classified as sensitive to niraparib, cisplatin 4.7 μM 7 days, vs saline)","exoDNA length, sensitive PDO HNX29 [2]","exoDNA length, cisplatin-treated PDOs more resistant to niraparib ([2]; PDOs more resistant to niraparib, cisplatin-treated)",PDO response to niraparib compared with cisplatin [3],PD-L1 expression in niraparib-treated tumour cells (PD-L1; vs DMSO),"infiltration of CD45 positive cells, niraparib-treated resistant PDOs ([1]; resistant PDOs (high niraparib IC50), niraparib 1.4 μM 7 days, vs DMSO)","infiltration of CD45 positive cells, niraparib-treated sensitive PDOs ([1]; sensitive PDOs (low niraparib IC50), niraparib 1.4 μM 7 days, vs DMSO)",threshold ratio (niraparib/DMSO) in tumour cell viability between sensitive and resistant cancers [4],change / ratio (niraparib/DMSO) in tumour cell viability ([4]; sensitive vs resistant PDOs),correlation of exoDNA length with niraparib IC50 ([2]; 6 HNSCC and 3 NSCLC PDOs),"threshold ratio (niraparib/DMSO) of exosomal DNA length ([2]; ROC curve vs IC50 value, 10 PDOs, sensitivity 100%, specificity 67%)","exoDNA length, niraparib-treated, versus niraparib sensitiveness ([2]; compared to exoDNA from DMSO-treated counterpart)","exoDNA length, niraparib-treated more resistant PDOs ([2]; resistant PDOs, compared to DMSO-treated counterpart)","IC50 ([3]; Homo sapiens, 168 h, read-out: IC50 threshold (inflection point) above which increased infiltration of CD45 positive cells is observed, PDOs from multiple tumour types, dose-response curve after 7 days of treatment) [nM]",PD1 expression in infiltrating CD4 positive cells (PD1; infiltrating CD4 positive (T) cells),PD1 expression in non-infiltrating CD4 positive cells (PD1; non-infiltrating CD4 positive cells)
N.N.[Cl][Pt][Cl] [cisplatin],upregulation of PDL1 expression,higher infiltration of CD45 pos cells; also recorded: increased infiltration of CD45 positive cells,decreased infiltration with CD45 positive cells,higher,shorter,similar,,,,,,,,,,,,
NC(=O)c1cccc2cn(-c3ccc([C@@H]4CCCNC4)cc3)nc12 [niraparib],,,,higher,,similar,"upregulation of PD-L1 expression; also recorded: PDL1 upregulation; also recorded: high levels of PD-L1, or PD-L1 upregulation",increased in resistant samples; also recorded: increased infiltration of CD45 positive cells; also recorded: increased levels of CD45 positive cell infiltration,reduced in sensitive samples; also recorded: decreased infiltration with CD45 positive cells,0.75,"higher ratio (naraparib/DMSO) in tumour cell viability; also recorded: only pronounced in cancers that are sensitive to the PARP inhibitor, niraparib",exoDNA length correlates with the niraparib IC50,1.1,increased with the increase of niraparib sensitiveness,shorter,1000 to 1200,PD1 expression increases with the increased in IC50 value; also recorded: upregulate PD1 expression; also recorded: high levels of PD1 expression,PD1 expression negatively correlates with niraparib IC50 value
